Experimental data from patent US10973832B2, “Muscarinic M1 receptor agonists” (Heptares Therapeutics Limited, priority 2011, dated 2021).

What was measured:
[1] = biological target: T1, human muscarinic M1 receptor (Homo sapiens, UniProt P11229); assay: Phospho-ERK1/2 assay, muscarinic M1; type: cell-based; details: for EC50: CHO cells expressing human M1, phospho-ERK1/2 Alphascreen, read-out: pEC50 M1 (converted); for Emax: CHO, read-out: % Emax cf. ACh (M1)
T1 sequence (P11229 1-460): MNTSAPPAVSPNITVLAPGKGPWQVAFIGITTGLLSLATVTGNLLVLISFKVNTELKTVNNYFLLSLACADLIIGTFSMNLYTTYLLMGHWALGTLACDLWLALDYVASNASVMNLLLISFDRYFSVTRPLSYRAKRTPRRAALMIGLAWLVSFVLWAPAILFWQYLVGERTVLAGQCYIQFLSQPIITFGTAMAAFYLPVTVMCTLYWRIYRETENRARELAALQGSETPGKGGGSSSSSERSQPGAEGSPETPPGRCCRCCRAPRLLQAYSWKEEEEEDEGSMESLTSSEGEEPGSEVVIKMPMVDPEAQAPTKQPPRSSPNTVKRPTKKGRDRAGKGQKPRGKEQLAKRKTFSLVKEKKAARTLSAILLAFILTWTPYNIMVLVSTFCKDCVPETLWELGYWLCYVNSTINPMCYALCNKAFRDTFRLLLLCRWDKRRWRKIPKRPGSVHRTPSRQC
Method: (§1) Functional assays were performed using the Alphascreen Surefire phospho-ERK1/2 assay (Crouch & Osmond, Comb. Chem. High Throughput Screen, 2008). ERK1/2 phosphorylation is a downstream consequence of both Gq/11 and Gi/o protein coupled receptor activation, making it highly suitable for the assessment of M1, M3 (Gq/11 coupled) and M2, M4 receptors (Gi/o coupled), rather than using different assay formats for different receptor subtypes. CHO cells stably expressing the human muscarinic M1, M2, M3 or M4 receptor were plated (25K/well) onto 96-well tissue culture plates in MEM-alpha+10% dialysed FBS. Once adhered, cells were serum-starved overnight. Agonist stimulation was performed by the addition of 5 μL agonist to the cells for 5 min (37° C.). Media was removed and 50 μL of lysis buffer added. After 15 min, a 4 μL sample was transferred to 384-well plate and 7 μL of detection mixture added. Plates were incubated for 2 h with gentle agitation in the dark and then read on a PHERAstar plate reader.
(§2) pEC50 and Emax figures were calculated from the resulting data for each receptor subtype.

[2] = biological target: T2, human muscarinic M4 receptor (Homo sapiens, UniProt P08173); assay: Phospho-ERK1/2 assay, muscarinic M4; type: cell-based; details: for EC50: CHO cells expressing human M4, phospho-ERK1/2 Alphascreen, read-out: pEC50 M4 (converted); for Emax: CHO, read-out: % Emax cf. ACh (M4)
T2 construct: expressed in transfected cells
T2 sequence (P08173 1-479): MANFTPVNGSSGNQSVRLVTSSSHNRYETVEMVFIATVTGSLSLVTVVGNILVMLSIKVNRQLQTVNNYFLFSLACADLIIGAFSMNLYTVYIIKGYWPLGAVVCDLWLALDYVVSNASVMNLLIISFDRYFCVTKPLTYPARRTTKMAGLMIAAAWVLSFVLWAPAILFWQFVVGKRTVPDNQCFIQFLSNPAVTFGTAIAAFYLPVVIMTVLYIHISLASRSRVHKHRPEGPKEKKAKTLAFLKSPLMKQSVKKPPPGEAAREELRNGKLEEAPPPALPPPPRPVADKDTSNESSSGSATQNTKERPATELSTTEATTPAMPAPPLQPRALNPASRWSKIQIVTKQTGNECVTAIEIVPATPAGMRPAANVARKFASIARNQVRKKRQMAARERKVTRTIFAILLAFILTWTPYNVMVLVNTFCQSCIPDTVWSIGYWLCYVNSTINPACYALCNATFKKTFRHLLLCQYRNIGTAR
Method: as §1, §2

[3] = tested on: CA1 region of rat hippocampal slices; assay: CA1 cell firing (fEPSP amplitude); type: cell-based; details: five point cumulative concentration-response, 6 slices averaged
Method: Rat hippocampal slices of […] thickness were cut in chilled (<4° C.) artificial cerebrospinal fluid (aCSF, composition in mM: NaCl 127, KCl 1.6, KH2PO4 1.24, MgSO4 1.3, CaCl2 2.4, NaHCO3 26 and D-glucose 10) using vibratome. Slices were maintained in oxygenated (95% O2/5% CO2) aCSF at room temperature for at least 1 hr prior to electrophysiological recording, after which they were transferred to an interface chamber and constantly perfused with warmed (30° C.) oxygenated aCSF at a flow rate of 1.5-3 ml·min−1. Schaffer collaterals were then stimulated (1-20 V, 0.1 ms pulse width, 0.033 Hz) with a concentric bipolar electrode to evoke field excitatory post synaptic potentials (fEPSPs) recorded from the stratum radiatum of the CA1 region.
Experiments were performed to examine the effect of compound compared to […] carbachol (CCh), on the amplitude of fEPSPs in the CA1 region of rat hippocampal slices. 1 μM CCh was initially applied until steady-state, followed by wash, before performing a five point cumulative concentration-response to compound. Each compound was tested on 6 slices and results averaged. Drug preparation; compound was dissolved in 100% DMSO at a stock concentration of 30 mM, and diluted according to requirements, carbamoylcholine chloride (CCh) was purchased from Sigma (Cat #C4382) and dissolved at a stock concentration of 1 mM in ddH2O.

[4] = biological target: T3, human muscarinic M2 receptor (Homo sapiens, UniProt P08172); assay: Phospho-ERK1/2 assay, muscarinic M2; type: cell-based; details: for EC50: CHO cells expressing human M2, phospho-ERK1/2 Alphascreen, read-out: pEC50 M2 (converted); for Emax: CHO, read-out: % Emax cf. ACh (M2)
T3 sequence (P08172 1-466): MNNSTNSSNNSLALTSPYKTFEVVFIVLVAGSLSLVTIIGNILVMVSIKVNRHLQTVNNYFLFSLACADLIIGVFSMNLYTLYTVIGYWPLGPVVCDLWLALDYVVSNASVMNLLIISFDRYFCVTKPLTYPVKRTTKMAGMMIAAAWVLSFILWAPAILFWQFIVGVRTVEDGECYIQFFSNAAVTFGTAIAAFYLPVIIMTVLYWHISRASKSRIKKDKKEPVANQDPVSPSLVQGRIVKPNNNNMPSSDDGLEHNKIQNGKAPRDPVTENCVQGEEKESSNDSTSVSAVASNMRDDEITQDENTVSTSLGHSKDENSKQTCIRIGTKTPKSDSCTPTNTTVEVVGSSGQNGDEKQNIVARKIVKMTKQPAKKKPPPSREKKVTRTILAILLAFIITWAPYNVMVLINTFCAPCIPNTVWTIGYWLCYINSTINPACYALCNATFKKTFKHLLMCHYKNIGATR
Method: as §1, §2

[5] = biological target: T4, human muscarinic M3 receptor (Homo sapiens, UniProt P20309); assay: Phospho-ERK1/2 assay, muscarinic M3; type: cell-based; details: for EC50: CHO cells expressing human M3, phospho-ERK1/2 Alphascreen, read-out: pEC50 M3 (converted); for Emax: CHO, read-out: % Emax cf. ACh (M3)
T4 construct: expressed in transfected cells
Method: as §1, §2

[6] = tested on: Male Wistar rats; assay: Novel object recognition; type: in vivo
Method: The novel object recognition paradigm is based on the greater spontaneous exploration of a novel object, compared with a familiar object, shown by rodents (Ennaceur and Delacour, 1988). […] Male Wistar rats were assessed for cognitive ability in a test apparatus comprising an open-field arena placed in a sound-attenuated room under dimmed lighting. Images of the open-field were captured by digital camera, and viewed on a monitor in an adjoining room. Each rat was subjected to the procedure separately and care taken to remove any olfactory/taste cues by cleaning the arena and test objects with alcohol between trials and rats. All tests are video scored blind to treatment. Following a 10-minute habituation period, each rat was placed into the test arena in the presence of two identical objects (plastic shapes). Each rat was placed facing the same direction at the same position in the arena, and the time spent actively exploring the objects during a 5-minute training period (T1) was recorded. The rat is returned to its home cage between tests. After 24 hours, each rat was again placed in the test arena for 5 minutes (T2) in the presence of one of the familiar objects and a novel object, and the time spent exploring both objects again recorded. The presentation order and position of the objects (left/right) was randomized between rats to prevent bias from order or place preference. Doses of 3, 10 or 30 mg/kg of test compound were administered by oral gavage 90 minutes prior to training (n=8). Donepezil (0.1 mg/kg) and galanthamine (3 mg/kg) were administered via intraperitoneal injection 60 minutes prior to training. Vehicle-treated controls were employed for comparison.

T4 sequence (P20309 whole entry): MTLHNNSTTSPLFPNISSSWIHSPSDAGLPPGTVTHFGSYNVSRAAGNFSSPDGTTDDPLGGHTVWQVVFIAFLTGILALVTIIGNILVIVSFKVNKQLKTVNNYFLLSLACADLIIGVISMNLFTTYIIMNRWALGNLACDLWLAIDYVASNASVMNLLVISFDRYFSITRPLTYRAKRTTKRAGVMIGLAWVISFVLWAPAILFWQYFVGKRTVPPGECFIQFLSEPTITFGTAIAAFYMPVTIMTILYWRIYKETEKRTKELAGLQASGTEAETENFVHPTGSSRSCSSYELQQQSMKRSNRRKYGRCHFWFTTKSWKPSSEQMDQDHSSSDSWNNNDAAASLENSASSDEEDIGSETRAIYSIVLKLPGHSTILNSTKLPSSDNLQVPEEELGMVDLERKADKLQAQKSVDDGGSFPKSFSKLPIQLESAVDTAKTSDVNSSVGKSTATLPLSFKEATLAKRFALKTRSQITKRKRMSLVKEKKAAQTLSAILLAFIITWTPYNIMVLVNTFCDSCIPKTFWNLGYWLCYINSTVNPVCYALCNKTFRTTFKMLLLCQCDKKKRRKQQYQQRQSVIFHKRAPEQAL

EC50 [1]	Emax [1]	EC50 [2]	Emax [2]	EC50 [3]	EC50 [4]	Emax [4]	EC50 [5]	Emax [5]	Compound	novel object recognition memory vs vehicle-treated controls ([6]; 0.1 mg/kg intraperitoneal 60 minutes prior to training)	novel object recognition memory vs vehicle-treated controls ([6]; 3 mg/kg intraperitoneal 60 minutes prior to training, p<0.05)
0.0457 µM	106%	0.851 µM	89%	9.4 µM	> 20 µM	13%	> 20 µM	9%	CCOC(=O)N1CCCC(N2CCC(F)(C(=O)NCC(C)C)CC2)CC1 (centres unmarked) [Example 40, ethyl 4-(4-fluoro-4-((2-methylpropyl)carbamoyl)piperidin-1-yl)azepane-1-carboxylate]	–	–
0.0851 µM	113%	1.05 µM	76%	4.1 µM	> 20 µM	10%	> 20 µM	33%	CCOC(=O)N1CCCC(N2CCC(C(=O)NCC(C)C)CC2)CC1 (centres unmarked) [Example 6, ethyl 4-(4-((2-methylpropyl)carbamoyl)piperidin-1-yl)azepane-1-carboxylate]	–	–
–	–	–	–	–	–	–	–	–	COc1cc2c(cc1OC)C(=O)C(CC1CCN(Cc3ccccc3)CC1)C2 (centres unmarked) [Donepezil, donepezil]	without effect on novel object recognition	–
–	–	–	–	–	–	–	–	–	COc1ccc2c3c1O[C@H]1C[C@@H](O)C=C[C@@]31CCN(C)C2 [galanthamine]	–	significantly improved novel object recognition memory
0.0525 µM	132%	0.282 µM	97%	–	> 20 µM	19%	> 20 µM	4%	CCOC(=O)N1CCCC(N2CCC(C(=O)NC3(CC)CCC3)CC2)CC1 (centres unmarked) [Example 74]	–	–
0.0933 µM	93%	0.417 µM	82%	–	> 20 µM	5%	> 20 µM	8%	C#CCOC(=O)N1CCCC(N2CCC(C(=O)NCC(C)C)CC2)CC1 (centres unmarked) [Example 57, prop-2-yn-1-yl-4-(4-((2-methylpropyl)carbamoyl)piperidin-1-yl)azepane-1-carboxylate]	–	–
0.229 µM	95%	0.501 µM	84%	–	> 20 µM	9%	> 20 µM	5%	CCOC(=O)N1CCCC(N2CCC(F)(C(=O)NCC3CC3)CC2)CC1 (centres unmarked) [Example 52, ethyl 4-(4-fluoro-4-((cyclopropylmethyl)carbamoyl)piperidin-1-yl)azepane-1-carboxylate]	–	–
0.126 µM	114%	0.501 µM	104%	–	> 20 µM	48%	> 20 µM	4%	CCOC(=O)N1CCC[C@H](N2CCC(C(=O)NC(C)(C)C)CC2)CC1 [Example 67, ethyl (4S)-4-[4-(tert-butylcarbamoyl)piperidin-1-yl]azepane-1-carboxylate]	–	–
0.0832 µM	101%	0.589 µM	39%	–	> 20 µM	7%	> 20 µM	4%	CCOC(=O)N1CCCC(N2CCC(C(=O)NCC3(C)CCCC3)CC2)CC1 (centres unmarked) [Example 18]	–	–
0.0977 µM	113%	0.871 µM	27%	–	> 20 µM	7%	> 20 µM	27%	CCOC(=O)N1CCCC(N2CCC(OC)(C(=O)NC3(C)CCC3)CC2)CC1 (centres unmarked) [Example 79, ethyl 4-{4-methoxy-4-[(1-methylcyclobutyl)carbamoyl]piperidin-1-yl}azepane-1-carboxylate]	–	–
